Measured values published in patent US7625895B2, “Diphenyl-dihydro-imidazopyridinones” (Hoffmann-Le Roche Inc., priority 2007, dated 2009).

These compounds were tested against interaction between p53 and MDM2 proteins (recombinant GST-tagged MDM2 / p53-peptide) (Homo sapiens, UniProt Q00987) (assay: HTRF assay of inhibition of the p53-MDM2 interaction (GST-MDM2 binding to biotinylated p53 peptide)). Settings: 90 nM biotinylated p53 peptide, 160 ng/ml GST-MDM2, 37° C. 1 h.
Experimental: The ability of the compounds to inhibit the interaction between p53 and MDM2 proteins was measured by an HTRF (homogeneous time-resolved fluorescence) assay in which recombinant GST-tagged MDM2 binds to a peptide that resembles the MDM2-interacting region of p53 (Lane et al.). Binding of GST-MDM2 protein and p53-peptide (biotinylated on its N-terminal end) is registered by the FRET (fluorescence resonance energy transfer) between Europium (Eu)-labeled anti-GST antibody and streptavidin-conjugated Allophycocyanin (APC).
Test is performed in black flat-bottom 384-well plates (Costar) in a total volume of […] containing: 90 nM biotinylated peptide, 160 ng/ml GST-MDM2, 20 nM streptavidin-APC (PerkinElmerWallac), 2 nM Eu-labeled anti-GST-antibody (PerkinElmerWallac) 0.2% bovine serum albumin (BSA), 1 mM dithiothreitol (DTT) and 20 mM […] (TBS) buffer as follows: Add 10 μL of GST-MDM2 (640 ng/ml working solution) in reaction buffer to each well. Add 10 μL diluted compounds (1:5 dilution in reaction buffer) to each well mix by shaking. Add 20 μL biotinylated p53 peptide (180 nM working solution) in reaction buffer to each well and mix on shaker. Incubate at 37° C. for 1 h. Add 20 μL streptavidin-APC and Eu-anti-GST antibody mixture (6 nM Eu-anti-GST and 60 nM streptavidin-APC working solution) in TBS buffer with 0.2% BSA, shake at room temperature for 30 minutes and read using a TRF-capable plate reader at 665 and 615 nm (Victor 5, Perkin ElmerWallac). If not specified, the reagents were purchased from Sigma Chemical Co.

interaction between p53 and MDM2 proteins (recombinant GST-tagged MDM2 / p53-peptide), sequence (Q00987 whole entry): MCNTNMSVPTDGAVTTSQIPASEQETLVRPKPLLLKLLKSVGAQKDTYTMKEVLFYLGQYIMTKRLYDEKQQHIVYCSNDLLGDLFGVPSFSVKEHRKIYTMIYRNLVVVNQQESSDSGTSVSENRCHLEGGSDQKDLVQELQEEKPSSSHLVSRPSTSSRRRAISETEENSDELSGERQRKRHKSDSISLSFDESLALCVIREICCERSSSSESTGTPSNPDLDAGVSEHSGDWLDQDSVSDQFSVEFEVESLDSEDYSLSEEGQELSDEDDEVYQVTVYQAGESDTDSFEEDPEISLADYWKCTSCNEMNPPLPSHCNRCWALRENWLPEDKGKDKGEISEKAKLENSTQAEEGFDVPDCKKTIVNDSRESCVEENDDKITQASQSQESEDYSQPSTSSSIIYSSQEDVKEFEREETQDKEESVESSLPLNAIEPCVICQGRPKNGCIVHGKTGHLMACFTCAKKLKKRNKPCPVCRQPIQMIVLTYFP

Row | SMILES | IC50 [µM]
1 | O=c1cccc2n1[C@@H](c1ccc(Cl)cc1)[C@@H](c1ccc(Cl)cc1)N2S(=O)(=O)c1ccsc1 (racemic) [Example 10, rac-cis-2,3-Bis-(4-chloro-phenyl)-1-(thiophene-3-sulfonyl)-2,3-dihydro-1H-imidazo[1,2-a]pyridin-5-one] | 0.71
2 | O=C(CN1CCN(C(=O)c2ccc3n(c2=O)[C@@H](c2ccc(Cl)cc2)[C@@H](c2ccc(Cl)cc2)N3S(=O)(=O)c2ccccc2F)CC1)N1CCOCC1 (racemic) [Example 51, rac-cis-2,3-Bis-(4-chloro-phenyl)-1-(2-fluoro-benzenesulfonyl)-6-[4-(2-morpholin-4-yl-2-oxo-ethyl)-piperazine-1-carbonyl]-2,3-dihydro-1H-imidazo[1,2-a]pyridin-5-one] | 0.71
3 | COC(=O)c1cccc(S(=O)(=O)N2c3ccc(C(=O)N4CCN(CC(=O)N5CCOCC5)CC4)c(=O)n3[C@@H](c3ccc(Cl)cc3)[C@H]2c2ccc(Cl)cc2)c1 (racemic) [Example 62, rac-3-{cis-2,3-Bis-(4-chloro-phenyl)-6-[4-(2-morpholin-4-yl-2-oxo-ethyl)-piperazine-1-carbonyl]-5-oxo-2,3-dihydro-5H-imidazo[1,2-a]pyridine-1-sulfonyl}-benzoic acid methyl ester] | 0.47
4 | COC(=O)c1cccc(S(=O)(=O)N2c3ccc(C(=O)N4CCN(C)CC4)c(=O)n3[C@@H](c3ccc(Cl)cc3)[C@H]2c2ccc(Cl)cc2)c1 (racemic) [Example 63, rac-3-[cis-2,3-Bis-(4-chloro-phenyl)-6-(4-methyl-piperazine-1-carbonyl)-5-oxo-2,3-dihydro-5H-imidazo[1,2-a]pyridine-1-sulfonyl]-benzoic acid methyl ester] | 0.46
5 | COC(=O)c1cccc(S(=O)(=O)N2c3ccc(C(=O)N4CCN(CCn5ccnc5)CC4)c(=O)n3[C@@H](c3ccc(Cl)cc3)[C@H]2c2ccc(Cl)cc2)c1 (racemic) [Example 66, rac-3-{cis-2,3-Bis-(4-chloro-phenyl)-6-[4-(2-imidazol-1-yl-ethyl)-piperazine-1-carbonyl]-5-oxo-2,3-dihydro-5H-imidazo[1,2-a]pyridine-1-sulfonyl}-benzoic acid methyl ester] | 0.67
6 | O=C(O)c1cccc(S(=O)(=O)N2c3cccc(=O)n3[C@@H](c3ccc(Cl)cc3)[C@H]2c2ccc(Cl)cc2)c1 (racemic) [Example 82, rac-3-[cis-2,3-Bis-(4-chloro-phenyl)-5-oxo-2,3-dihydro-5H-imidazo[1,2-a]pyridine-1-sulfonyl]-benzoic acid] | 0.77
7 | N#Cc1cc(S(=O)(=O)N2c3cccc(=O)n3[C@@H](c3ccc(Cl)cc3)[C@H]2c2ccc(Cl)cc2)ccc1F (single isomer, unassigned) [Example 84, 5-[(2R*,3S*)-2,3-Bis-(4-chloro-phenyl)-5-oxo-2,3-dihydro-5H-imidazo[1,2-a]pyridine-1-sulfonyl]-2-fluoro-benzonitrile] | 0.5
8 | N#Cc1cc(S(=O)(=O)N2c3cccc(=O)n3[C@@H](c3ccc(Cl)cc3)[C@H]2c2ccc(Cl)cc2)ccc1F (single isomer, unassigned) [Example 85, 5-[(2R*,3S*)-2,3-Bis-(4-chloro-phenyl)-5-oxo-2,3-dihydro-5H-imidazo[1,2-a]pyridine-1-sulfonyl]-2-fluoro-benzonitrile] | 0.22
9 | N#Cc1cccc(S(=O)(=O)N2c3ccc(C(=O)N4CCOCC4)c(=O)n3[C@@H](c3ccc(Cl)cc3)[C@H]2c2ccc(Cl)cc2)c1 (single isomer, unassigned) [Example 91, 3-[2R*,3S*-bis-(4-chloro-phenyl)-6-(morpholine-4-carbonyl)-5-oxo-2,3-dihydro-5H-imidazo[1,2-a]pyridine-1-sulfonyl]-benzonitrile] | 1.6
10 | N#Cc1cccc(S(=O)(=O)N2c3ccc(C(=O)N4CCOCC4)c(=O)n3[C@H](c3ccc(Cl)cc3)[C@@H]2c2ccc(Cl)cc2)c1 (single isomer, unassigned) [Example 92, 3-[2R*,3S*-bis-(4-chloro-phenyl)-6-morpholine-4-carbonyl)-5-oxo-2,3-dihydro-5H-imidazo[1,2-a]pyridine-1-sulfonyl]-benzonitrile] | 0.69
